Assay [1] concerns MDA-MB-231. In words: Cytotoxicity against human MDA-MB-231 cells assessed as cell viability upto 100 uM incubated for 72 hrs by resazurin dye based fluorescence assay. In kind it is functional. In general terms: The colour change of resazurin is a common sign of viable cells or microbes.
Another assay has as its target Chymotrypsinogen A (Bos taurus, UniProt P00766). Nature of the assay: Inhibition of bovine pancreatic alpha chymotrypsin using N-succinyl-Gly-Gly-Phe-p-nitroanilide as substrate preincubated with enzyme for 10 mins followed by substrate addition and measured for 30 mins.
The subject of assay [2] is HCT-116. In words: Cytotoxicity against human HCT-116 cells assessed as cell viability upto 100 uM incubated for 72 hrs by resazurin dye based fluorescence assay. In kind it is functional.
Assay [3] can be described thus: Inhibition of porcine pancreatic elastase using N-succinyl-Ala-Ala-Ala-p-nitroanilide as substrate preincubated with enzyme for 15 mins followed by substrate addition and measured for 30 mins. Set-up: species or system Sus scrofa.
The subject of assay [4] is OVCAR. In words: Cytotoxicity against human OVCAR cells assessed as cell viability upto 100 uM incubated for 72 hrs by resazurin dye based fluorescence assay. Type of assay: functional.
Assay [5] addresses Replicase polyprotein 1ab (Severe acute respiratory syndrome coronavirus 2, UniProt P0DTD1). In words: Inhibition of SARS-CoV-2 3CLpro incubated for 4 hrs.
The test system of a further assay is L1210. Nature of the assay: Cytotoxicity against mouse L1210 cells assessed as reduction in cell viability. In kind it is functional, cell-based.
Assay [6] relates to MDA-MB-231. In words: Cytotoxicity against human MDA-MB-231 cells assessed as cell viability at >20 uM incubated for 72 hrs by resazurin dye based fluorescence assay. Type of assay: functional.
Assay [7] has as its system HCT-116. Nature of the assay: Cytotoxicity against human HCT-116 cells assessed as cell viability at >20 uM incubated for 72 hrs by resazurin dye based fluorescence assay. Type of assay: functional.
In a further assay the test system is KB. In words: Cytotoxicity against human KB cells assessed as reduction in cell viability. In kind it is functional, cell-based.
In assay [8] the test system is OVCAR. In words: Cytotoxicity against human OVCAR cells assessed as cell viability at > 20 uM incubated for 72 hrs by resazurin dye based fluorescence assay. Type of assay: functional.

Molecules are shown by their SMILES. The source made the active and inactive calls. No cut-off for these calls is given here. Starred links: 1 amine or outer side, 2 acyl side, 3 side chain; linkers in the order of their positions; H or OH if unused. Positions of bridges follow the written chain, without caps; N, C: chain ends. Non-standard residues stand in square brackets, D forms with d. Residues, ends and D or L forms follow the SMILES beside them. X2 = O=C(/C=C/c1csc([C@H](Cc2ccc(O)cc2)N[*:1])n1)[*:2]; X1 = CC[C@H](C)[C@H](N[*:1])C(=O)C(=O)[*:2]; Cya = N[C@@H](CS(=O)(=O)O)C(=O)O; Nva = CCC[C@H](N)C(=O)O; Abu = CC[C@H](N)C(=O)O; Dap = NC[C@H](N)C(=O)O

The source of these data is ChEMBL document CHEMBL5390207, “Cyclotheonellazoles D-I, Potent Elastase Inhibitory Thiazole-Containing Cyclic Peptides from Theonella sp. (2131)” (J Nat Prod, 2023).

Consider `CC[C@H](C)[C@@H]1NC(=O)[C@H](CC(C)C)NC(=O)[C@@H](N2C(=O)N[C@@H](C)C2=O)CNC(=O)[C@H](CS(=O)(=O)O)NC(=O)/C=C/c2csc(n2)[C@H](Cc2ccc(O)cc2)NC(=O)C1=O`, for which the outcome with MDA-MB-231 [1], with HCT-116 [2] and in the assay with OVCAR [4] was inactive. Moreover, the concentration for half-maximal inhibition (IC50) (usually the concentration that inhibits the measured activity by half) on Chymotrypsinogen A turned out to be 1.9 µM; in assay [3], 0.0176 µM.

As to `CCC[C@@H]1NC(=O)[C@@H](N2C(=O)N[C@@H](C)C2=O)CNC(=O)[C@H](CS(=O)(=O)O)NC(=O)/C=C/c2csc(n2)[C@H](Cc2ccc(O)cc2)NC(=O)C(=O)[C@H]([C@@H](C)CC)NC1=O`, the result in the assay with MDA-MB-231 [1], with HCT-116 [2] and with OVCAR [4] was inactive. In addition, the IC50 against Chymotrypsinogen A was found to be 2.5 µM; in assay [3], 0.0348 µM.

Regarding `CC[C@@H]1NC(=O)[C@@H](N2C(=O)N[C@@H](C)C2=O)CNC(=O)[C@H](CS(=O)(=O)O)NC(=O)/C=C/c2csc(n2)[C@H](Cc2ccc(O)cc2)NC(=O)C(=O)[C@H]([C@@H](C)CC)NC1=O`, the result with MDA-MB-231 [1], in the assay with HCT-116 [2] and in the assay on OVCAR [4] was inactive. In addition, the IC50 against Chymotrypsinogen A stood at 2.7 µM; in assay [3] it was 0.0618 µM.

`CC[C@@H]1NC(=O)[C@@H](NC(=O)[C@H](C)N)CNC(=O)[C@H](CS(=O)(=O)O)NC(=O)/C=C/c2csc(n2)[C@H](Cc2ccc(O)cc2)NC(=O)C(=O)[C@H]([C@@H](C)CC)NC1=O` (H-A[Dap][Abu][X1][X2][Cya]; lactam 2-C): the IC50 came out at 1.6 µM against Chymotrypsinogen A and 0.016 µM in [3].

Regarding `CCC[C@@H]1NC(=O)[C@@H](NC(=O)[C@H](C)N)CNC(=O)[C@H](CS(=O)(=O)O)NC(=O)/C=C/c2csc(n2)[C@H](Cc2ccc(O)cc2)NC(=O)C(=O)[C@H]([C@@H](C)CC)NC1=O` (H-A[Dap][Nva][X1][X2][Cya]; lactam 2-C), the IC50 on Chymotrypsinogen A was 2.4 µM; in assay [3], 0.0201 µM; in assay [5] it was 16.1 µM.

Consider `CC(C)C[C@@H]1NC(=O)[C@H](NC(=O)N[C@@H](Cc2ccccc2)C(=O)O)CCCCNC(=O)[C@H](Cc2ccccc2)NC(=O)[C@H](Cc2c[nH]c3cc(Cl)c(O)cc23)N(C)C(=O)[C@H](CC(C)C)NC1=O`, for which the IC50 came to 0.73 µM against Chymotrypsinogen A, 0.0513 µM in [3] and 1.1 µM in assay [5].

`CC(C)C[C@@H]1NC(=O)[C@H](NC(=O)N[C@@H](Cc2ccccc2)C(=O)O)CCCCNC(=O)[C@H](Cc2ccccc2)NC(=O)[C@H](Cc2c[nH]c3cc(Cl)ccc23)N(C)C(=O)[C@H](CC(C)C)NC1=O`: the IC50 in the assay with L1210 stood at 0.5 µM; in the assay with KB, 0.97 µM; in assay [5], 4.6 µM. Also, the outcome with MDA-MB-231 [6], with HCT-116 [7] and in the assay on OVCAR [8] was Active.

Turning to `CC[C@H](C)[C@@H]1NC(=O)[C@H](CC(C)C)NC(=O)[C@@H](NC(=O)[C@H](C)N)CNC(=O)[C@H](CS(=O)(=O)O)NC(=O)/C=C/c2csc(n2)[C@H](Cc2ccc(O)cc2)NC(=O)C1=O` (H-A[Dap]L[X1][X2][Cya]; lactam 2-C), the values for the 50% inhibitory concentration (IC50) (on Chymotrypsinogen A; in assay [3]; in assay [5]) were 2 µM, 0.028 µM and 6.1 µM, respectively.

As for `O=S(=O)(F)Cc1ccccc1` [PHENYLMETHYLSULFONYLFLUORIDE], the 50% inhibitory concentration (IC50) against Chymotrypsinogen A amounted to 0.42 µM; in assay [3], 0.138 µM.
